Series [1] relates to aged-impaired (AI) rats. Nature of the series: Morris water maze behavioral task (Example 109). Format: in vivo, rat. The conditions noted are these: 100 μg ICV. On the procedure:
The effects of 6,6 dimethyl-3-(3-hydroxypropyl)thio-1-(thiazol-2-yl)-6,7-dihydro-2-benzothiophen-4(5H)-one on the in vivo spatial memory retention of aged-impaired (AI) rats were assessed in a Morris water maze behavioral task. A water maze is a pool surrounded with a novel set of patterns relative to the maze.
Cognitively impaired aged rats were implanted unilaterally with a cannula into the lateral ventricle. Stereotaxic coordinates were 1.0 mm posterior to bregma, 1.5 mm lateral to midline, and 3.5 mm ventral to the skull surface. After about a week of recovery, the rats were pre-trained in a water maze for 2 days (6 trials per day) to locate a submerged escape platform hidden underneath the surface of the pool, in which the escape platform location varied from day to day. No intracerebroventricular (ICV) infusion was given during pre-training.
After pre-training, rats received ICV infusion of either 100 μg 6,6 dimethyl-3-(3-hydroxypropyl)thio-1-(thiazol-2-yl)-6,7-dihydro-2-benzothiophen-4(5H)-one (n=6) in 5 μl DMSO or vehicle DMSO (n=5) 40 min prior to water maze training and testing. Training consisted of 8 trials per day for 2 days where the hidden escape platform remained in the same location. Rats were given 60 seconds to locate the platform with a 60 seconds inter-trial interval. The rats were given a probe test (120 seconds) 24 hr after the end of training where the escape platform was removed. During the training, there were 4 blocks, where each block had 4 training trials.
During a test trial 24 hr after training, the escape platform was removed. The search/swim pattern of the rats was used to measure whether the rats remember where the escape platform was located during pre-trial training in order to test for the long-term memory of the rats. In this trial, “target annulus” is a designated area 1.5 times the size of the escape platform around the area where the platform was located during pre-trial training. “Opposite annulus” is a control area of the same size as the size of the target annulus, which is located opposite to the target annulus in the pool. If the rats had good long term memory, they would tend to search in the area surrounding the location where the platform was during the pre-trial training (i.e., the “target” annulus; and not the “opposite” annulus). “Time in annulus” is the amount of time in seconds that the rat spent in the target or opposite annulus area. “Number (#) of crossings” in annulus is the number of times the rat swam across the target or opposite annulus area.

Series [2] concerns the target T1, α5β3γ2 GABAA receptors (Homo sapiens, UniProt P18507+P31644).
T1 construct: membranes
Nature of the series: Binding activity of test compounds on GABAAR ([3H]Ro15-1788 inhibition, Ltk cell membranes). On the procedure:
The binding was performed on Ltk cells stably expressing GABAA receptors: α1β1γ2, α2β3γ2, α3β3γ2 and α5β3γ2 (provided by Merck Co., NJ, USA). Cells were seeded in 100 mm culture plates in DMEM/F12 medium containing 10% serum and antibiotics in 5% C02 and allowed to grow for 1-2 days. GABAAR expression was then induced by dexamethasone as follows: 0.5 μM for 1 day for α5 containing and 2 μM for 3 days for α1, α2 and α3 containing GABAARs. After induction, cells were collected by scraping into Dulbecco's Phosphate buffered saline (DPBS, pH 7.4, Invitrogen, Carlsbad, Calif., USA) and centrifuged at 150×g for 10 min. The pellet was washed twice by re-suspension and centrifugation. The cell pellets from at least 5 different preps were combined, suspended in the binding assay buffer (50 mM KH2PO4; 1 mM EDTA; 0.2 M KCl, pH 7.4) and membranes prepared by sonication (3-5 times, 30 sec) using Branson Sonifier 150 (G.Heinmann, Germany). Protein content was determined using BCA assay (Bio-Rad Labs, Reinach, Switzerland) with Bovine Serum Albumin (Sigma Aldrich, St. Louis, Mo., USA) as the standard. Aliquots were prepared and stored at −20° C. for further use in binding assays.
Saturation binding curves were obtained by incubating membranes with increasing concentrations (0.01-8 nM) of [^3H]Ro15-1788 (Flumazepil, 75-85 Ci/mmol, PerkinElmer, MA, USA), with nonspecific binding measured in the presence of 10 μM diazepam.
All binding assays were performed for 1 h at 4° C. in assay buffer. The total assay volume was 0.5 ml containing 0.2 mg/ml protein for α5 and 0.4 mg/ml for α1, α2, and α3 containing GABAAR membranes. Incubations were terminated by filtration through GF/B filters using a 24-Cell Harvestor (Brandel, Gaithersburg, Md., USA) followed by 3 washes with ice-cold assay buffer. Filters were transferred to scintillation vials, 5 ml scintillation liquid added, vortex-mixed and kept in dark. Next day, radioactivity was obtained using a scintillation counter (Beckman Coulter, Brea, Calif., USA). All assays were performed in triplicate.
Saturation and inhibition curves were obtained using GraphPad Prism software (GraphPad Software, Inc., CA, USA).

Series [3] has as its target T2, GABAA receptors (α5β2γ2) (Homo sapiens, UniProt P18507+P31644).
T2 construct: expressed in transfected cells; host or cells: oocytes injected with a mix of alpha, beta and gamma cDNA (1:1:10 by weight)
The series can be described thus: Positive allosteric modulator activity, potentiation of EC20 GABA current in oocytes. Type of series: cell-based. Conditions: read-out: GABA α5 functional potentiation. On the procedure: On day 1, 1 ng/32 nL of GABAA […] cDNA was injected into one oocyte. Test starts on day 2. The cDNA injected to the oocytes was a mix of alpha, beta and gamma, their ratio is 1:1:10 (by weight) and the total weight of the mixed 3 subunits to be injected in one oocyte was 1 ng in 32 nl volume. The injected oocytes can also be tested on day 3. In such case, the cDNA amount injected to the oocytes should be reduced by 20%.
1). 8 oocytes were placed in 8 chambers of OpusXpress and superfused with Modified Barth's Saline (MBS) at 3 mL/min. Glass electrodes back-filled with 3M KCl (0.5-3 megaohms) were used.
3). […] Oocytes were washed with MBS for 5-10 min.
2). […] Divide Itest by IGABA to obtain potentiation (%).
3). Discard all tested oocytes, new oocytes were used and the above steps 1) and 2) were repeated to test second concentration of the same compound. Each oocyte was used for only one concentration test for a single test compound. The steps were repeated for other test compounds.

In series [4] the target is T3, GABAAα5 receptor (Rattus norvegicus, UniProt P18508+P19969).
T3 construct: occupancy in the hippocampus (a region of high GABAAα5 receptor density); from tissue; host or cells: rat brain in vivo; hippocampus versus cerebellum
The series can be described thus: GABAA α5 receptor occupancy with Ro 15-4513 tracer (Example 107B). Type of series: in vivo, Long Evans rats. The source says: Food and water were available ad libitum.

Series [5] deals with MAM-treated rats. The conditions noted are these: cited from earlier work.
Where [6] appears, read: probe test 24 hr after training.
Where [7] appears, read: vehicle then tracer 1 μg/kg i.v.

T3 sequence (P19969 32-464 limits assumed): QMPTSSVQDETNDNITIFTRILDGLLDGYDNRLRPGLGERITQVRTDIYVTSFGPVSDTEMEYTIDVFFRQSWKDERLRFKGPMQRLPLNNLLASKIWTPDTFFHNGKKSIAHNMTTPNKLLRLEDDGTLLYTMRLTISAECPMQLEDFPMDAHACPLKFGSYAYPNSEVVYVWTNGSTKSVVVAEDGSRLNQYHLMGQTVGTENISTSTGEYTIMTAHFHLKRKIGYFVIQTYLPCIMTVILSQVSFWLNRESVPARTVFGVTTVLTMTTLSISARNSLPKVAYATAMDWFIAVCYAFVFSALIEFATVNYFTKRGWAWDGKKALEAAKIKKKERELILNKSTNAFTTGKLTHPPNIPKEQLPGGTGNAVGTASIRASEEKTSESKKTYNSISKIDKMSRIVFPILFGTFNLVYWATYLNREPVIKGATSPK
T3 sequence (P18508 39-466): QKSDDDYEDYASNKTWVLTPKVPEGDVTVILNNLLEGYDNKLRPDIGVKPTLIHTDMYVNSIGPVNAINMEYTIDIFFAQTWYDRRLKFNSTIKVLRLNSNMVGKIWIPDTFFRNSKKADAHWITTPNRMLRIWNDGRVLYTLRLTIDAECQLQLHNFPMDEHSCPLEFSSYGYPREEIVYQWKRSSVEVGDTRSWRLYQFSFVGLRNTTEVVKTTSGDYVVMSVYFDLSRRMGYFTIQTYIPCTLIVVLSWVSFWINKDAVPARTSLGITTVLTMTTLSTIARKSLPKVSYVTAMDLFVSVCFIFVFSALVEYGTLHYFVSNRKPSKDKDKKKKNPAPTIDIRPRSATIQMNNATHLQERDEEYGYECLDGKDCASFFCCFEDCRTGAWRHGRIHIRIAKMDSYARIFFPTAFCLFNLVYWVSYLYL
T2 sequence (P31644 32-462): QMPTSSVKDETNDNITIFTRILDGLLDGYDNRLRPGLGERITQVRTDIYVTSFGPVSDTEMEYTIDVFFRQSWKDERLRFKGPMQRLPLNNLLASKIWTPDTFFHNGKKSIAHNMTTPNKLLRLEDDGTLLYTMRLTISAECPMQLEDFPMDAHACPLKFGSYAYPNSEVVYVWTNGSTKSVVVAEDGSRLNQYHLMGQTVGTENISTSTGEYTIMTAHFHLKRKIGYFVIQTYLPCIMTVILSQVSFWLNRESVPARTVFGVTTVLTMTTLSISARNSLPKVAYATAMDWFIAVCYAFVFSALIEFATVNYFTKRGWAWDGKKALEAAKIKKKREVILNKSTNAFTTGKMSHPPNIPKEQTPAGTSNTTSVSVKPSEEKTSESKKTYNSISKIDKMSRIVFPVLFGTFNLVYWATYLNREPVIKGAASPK
T2 sequence (P47870 25-512 partner limits assumed): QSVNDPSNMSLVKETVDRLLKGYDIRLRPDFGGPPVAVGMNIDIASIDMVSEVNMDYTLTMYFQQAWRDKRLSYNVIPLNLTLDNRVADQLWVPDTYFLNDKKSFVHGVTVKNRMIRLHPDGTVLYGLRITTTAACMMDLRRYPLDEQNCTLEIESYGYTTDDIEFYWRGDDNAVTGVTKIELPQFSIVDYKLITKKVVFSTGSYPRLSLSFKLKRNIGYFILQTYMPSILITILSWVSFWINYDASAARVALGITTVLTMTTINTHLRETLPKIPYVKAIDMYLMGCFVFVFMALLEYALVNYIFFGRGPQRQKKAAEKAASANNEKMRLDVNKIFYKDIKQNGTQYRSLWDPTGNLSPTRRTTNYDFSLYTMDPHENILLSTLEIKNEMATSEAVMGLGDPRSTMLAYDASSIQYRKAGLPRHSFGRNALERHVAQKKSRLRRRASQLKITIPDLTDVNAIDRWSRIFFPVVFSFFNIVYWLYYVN
T2 sequence (P18507 40-475): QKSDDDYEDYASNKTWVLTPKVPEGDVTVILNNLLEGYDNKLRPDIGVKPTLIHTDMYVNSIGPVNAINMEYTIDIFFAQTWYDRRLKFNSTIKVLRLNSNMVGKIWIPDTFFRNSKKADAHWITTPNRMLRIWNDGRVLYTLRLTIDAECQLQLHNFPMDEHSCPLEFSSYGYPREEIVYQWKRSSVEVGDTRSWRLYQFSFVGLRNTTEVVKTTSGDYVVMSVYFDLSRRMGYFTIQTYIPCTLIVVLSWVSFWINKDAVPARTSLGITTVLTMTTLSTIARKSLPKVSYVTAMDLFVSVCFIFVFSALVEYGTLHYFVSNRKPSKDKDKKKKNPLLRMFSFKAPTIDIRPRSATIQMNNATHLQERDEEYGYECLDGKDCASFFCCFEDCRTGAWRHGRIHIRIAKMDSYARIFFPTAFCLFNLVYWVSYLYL
T1 sequence (P31644 32-462): as the sequence (P31644 32-462) above
T1 sequence (P28472 26-473 partner): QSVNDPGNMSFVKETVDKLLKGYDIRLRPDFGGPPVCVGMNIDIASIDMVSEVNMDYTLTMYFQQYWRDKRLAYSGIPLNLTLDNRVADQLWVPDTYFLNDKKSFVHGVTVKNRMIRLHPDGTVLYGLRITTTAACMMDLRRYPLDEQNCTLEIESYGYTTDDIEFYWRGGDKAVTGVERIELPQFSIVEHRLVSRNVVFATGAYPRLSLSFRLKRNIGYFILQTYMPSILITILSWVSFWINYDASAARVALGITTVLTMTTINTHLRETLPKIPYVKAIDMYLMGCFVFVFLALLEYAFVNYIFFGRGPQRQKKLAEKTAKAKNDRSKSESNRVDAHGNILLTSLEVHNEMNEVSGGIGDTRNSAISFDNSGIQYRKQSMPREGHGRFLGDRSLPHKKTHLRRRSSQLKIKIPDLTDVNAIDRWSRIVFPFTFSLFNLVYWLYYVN
T1 sequence (P18507 40-475): as the sequence (P18507 40-475) above

`CC1(C)CC(=O)c2c(SCCCO)sc(-c3nccs3)c2C1` [6,6 dimethyl-3-(3-hydroxypropyl)thio-1-(thiazol-2-yl)-6,7-dihydro-2-benzothiophen-4(5H)-one]: in series [1], the “learning of the water maze task” value is given as “improved the learning” and the “long-term memory in the water maze task” value is “improved the long-term memory”. In series [1] (setting [6]), the “number of crossings of target annulus compared to opposite annulus” value is listed as “more often” and the “time in target annulus compared to opposite annulus” value is on record as “spent significantly more time in the target annulus”. The “time to find the escape platform (escape latency)” value in series [1] (training block 1) is given as “about 24 seconds”. Further, the “time to find the escape platform (escape latency)” value in series [1] (training block 4) was “about 9.6 seconds”.
Consider `COCc1nnc2n1Cc1c(-c3nc(C(C)C)no3)ncn1-c1ccc(OC)cc1-2` [Compound 130], for which the Ki (as a rule, the dissociation constant of the complex between target and ligand, obtained from inhibition or displacement) in series [2] was less than 99 nM. The activation at 0.1 µM in series [3] is 20 to 49%.
For the compound `Cc1nnn2c1Cc1c(-c3nc(C(C)C)no3)ncn1-c1ccccc1-2` [Compound 132], the inhibition constant (Ki) in series [2] is less than 99 nM. Also, the activation at 0.1 µM in series [3] fell in the range of 20 to 49%.
In the case of `CCOC(=O)c1ncn2c1Cn1c(COc3ccccc3)nnc1-c1cc(F)ccc1-2` [Compound 137], the Ki in series [2] was less than 99 nM. In addition, the activation at 0.1 µM in series [3] was in the range of 20 to 49%.
For `Cc1nc(-c2ncn3c2Cc2c(C)nnn2-c2cc(F)ccc2-3)no1` [Compound 145], the Ki in series [2] was less than 99 nM. In series [3], the activation at 0.1 µM is more than 50%.
On to `CC(C)c1nc(-c2ncn3c2Cn2c(COc4ccccc4)nnc2-c2cc(F)ccc2-3)no1` [Compound 147], for which the inhibition constant (Ki) in series [2] is less than 99 nM. The activation at 0.1 µM in series [3] was 20 to 49%.
In turn, `Cc1nc(-c2ncn3c2Cn2c(COc4ccccc4)nnc2-c2cc(F)ccc2-3)no1` [Compound 148] returned a Ki in series [2] of less than 99 nM. Also, the activation at 0.1 µM in series [3] lay in the range of 20 to 49%.
For `Cc1nnn2c1Cc1c(-c3noc(C(C)C)n3)ncn1-c1ccc(F)cc1-2` [Compound 149], in that order: less than 99 nM and more than 50%.
In turn, `Cc1nnn2c1Cc1c(C(=O)OC(C)C)ncn1-c1ccccc1-2` [Compound 153] yielded a Ki in series [2] of less than 99 nM. Also, in series [3], the activation at 0.1 µM was in the range of 20 to 49%.
On the same counts, the results for `CCc1nc(-c2ncn3c2Cc2c(C)nnn2-c2cc(F)ccc2-3)no1` [Compound 155] are less than 99 nM and 20 to 49%.
`CCc1nc(-c2ncn3c2Cn2c(COc4ccccc4)nnc2-c2cc(F)ccc2-3)no1` [Compound 158] displayed a Ki in series [2] of less than 99 nM. In addition, the activation at 0.1 µM in series [3] fell in the range of 20 to 49%.
Consider `Cc1nnn2c1Cc1c(-c3noc(C(C)(C)C)n3)ncn1-c1ccc(F)cc1-2` [Compound 160], for which, in series [2], the inhibitory constant (Ki) was less than 99 nM. Besides, the activation at 0.1 µM in series [3] is more than 50%.
For `COc1ccc2c(c1)-c1nnc(COc3ccccc3)n1Cc1c(-c3noc(C)n3)ncn1-2` [Compound 162], in that order: less than 99 nM and 20 to 49%.
On the same counts, the results for `COc1ccc2c(c1)-c1nnc(COc3ccc(F)cc3)n1Cc1c(-c3noc(C)n3)ncn1-2` [Compound 163] are less than 99 nM and 20 to 49%.
Take `COc1ccc2c(c1)-c1nnc(COc3ccccc3)n1Cc1c(-c3noc(C(C)C)n3)ncn1-2` [Compound 171]: the inhibition constant (Ki) in series [2] was less than 99 nM. Besides, the activation at 0.1 µM in series [3] was more than 50%.
With `COc1ccc2c(c1)-c1nnc(COc3ccc(F)cc3)n1Cc1c(-c3noc(C(C)C)n3)ncn1-2` [Compound 172], the Ki in series [2] is less than 99 nM. For the same compound, in series [3], the activation at 0.1 µM was more than 50%.
The compound `CCOCc1nnc2n1Cc1c(-c3noc(C(C)C)n3)ncn1-c1ccc(OC)cc1-2` [Compound 173] had an inhibition constant Ki in series [2] of less than 99 nM. In addition, the activation at 0.1 µM in series [3] was more than 50%.
As to `COc1ccc2c(c1)-c1nnc(COc3ccccc3F)n1Cc1c(-c3noc(C(C)C)n3)ncn1-2` [Compound 174], the Ki in series [2] is less than 99 nM. In addition, the activation at 0.1 µM in series [3] was more than 50%.
As to `COc1ccc2c(c1)-c1nnc(COc3ccccc3Cl)n1Cc1c(-c3noc(C(C)C)n3)ncn1-2` [Compound 175], the inhibition constant (Ki) in series [2] is less than 99 nM. Further, the activation at 0.1 µM in series [3] fell in the range of 20 to 49%.
Consider `COc1ccc2c(c1)-c1nnc(COc3cccnc3)n1Cc1c(-c3noc(C(C)C)n3)ncn1-2` [Compound 176], for which the Ki in series [2] is less than 99 nM. Besides, the activation at 0.1 µM in series [3] is more than 50%.
As to `COc1ccc2c(c1)-c1nnc(COc3cccc4ccccc34)n1Cc1c(-c3noc(C(C)C)n3)ncn1-2` [Compound 177], the Ki in series [2] is less than 99 nM. In series [3], the activation at 0.1 µM is more than 50%.
Compound `COc1ccc2c(c1)-c1nnc(COC3CCCC3)n1Cc1c(-c3noc(C(C)C)n3)ncn1-2` [Compound 178] had an inhibition constant (Ki) in series [2] of less than 99 nM. Also, the activation at 0.1 µM in series [3] was more than 50%.
The compound `COc1ccc2c(c1)-c1nnc(COc3cccc(F)c3)n1Cc1c(-c3noc(C(C)C)n3)ncn1-2` [Compound 179] returned an inhibitory constant (Ki) in series [2] of less than 99 nM. Moreover, in series [3], the activation at 0.1 µM is more than 50%.
`CCOC(=O)c1ncn2c1CN(C)C(=O)c1cc(N=[N+]=[N-])ccc1-2` [Ro 15-4513]: the “Ro 15-4513 level in hippocampus compared with cerebellum” value in series [4] (tracer 1 μg/kg i.v.) is on record as more than 5 fold. Besides, in series [4] (setting [7]), the “level of Ro 15-4513 in cerebellum” value was 0.36 ± 0.02 ng/g and the “level of Ro 15-4513 in hippocampus” value was determined as 1.93 ± 0.05 ng/g.
Regarding `C#Cc1ccc2c(c1)C(c1ccccc1F)=N[C@H](C)c1c(C(=O)OCC)ncn1-2` [SH-053-2′F—R—CH3], the “increased locomotor response to amphetamine in MAM-treated rats” value in series [5] (rat, in vivo) was “is reduced”. Besides, the “cortical-evoked responses of HPC neurons” value in series [5] (saline-treated and MAM-treated animals) was “diminished cortical-evoked responses”.

The values are drawn from patent US11142529B2 (priority 2013, dated 2021).
